Test system: HepaRG 3D microtissues
Conditions: 10-day old HepaRG 3D microtissues, 1.2 mM CPA
Description: FIG. 2B is a chart showing the change in HepaRG spheroid volume as an indicator of cytotoxicity induced by cyclophosphamide (CPA) with or without 1-aminobenzotriazol (ABT). The inventors analyzed the data with two-way ANOVA with Tukey's LSD means. P=0.05. […] FIG. 2C is a picture showing hematoxylin and eosin (H&E) stained toroid-shaped HepaRG microtissues. Scale bars=100 μm.

With `O=P1(N(CCCl)CCCl)NCCCO1` (stereo not shown) [CPA, cyclophosphamide] the “cytotoxicity: cell death and spheroid volume” value was “caused cell death and a significant reduction in spheroid volume”.
